Consider three compounds from PMC8031368 (ACS chemical biology, 2020).

A short description of data set [1]: Determination of partition coefficient. Format: physicochemical. The settings on record: 1-octanol / PBS pH 7.4.
Data set [2] in a line: Dynamic PET scan over 60 min, time activity curves. It is filed as in vivo. The settings on record: male C57Bl6/J mice.
Data set [3] is described as follows: Biodistribution study post mortem. It is filed as in vivo. Conditions: C57Bl6/J mice, mean ± SD.
Data set [4] has as its target T1, GR (Mus musculus, UniProt P06537).
T1 sequence (P06537 1-792): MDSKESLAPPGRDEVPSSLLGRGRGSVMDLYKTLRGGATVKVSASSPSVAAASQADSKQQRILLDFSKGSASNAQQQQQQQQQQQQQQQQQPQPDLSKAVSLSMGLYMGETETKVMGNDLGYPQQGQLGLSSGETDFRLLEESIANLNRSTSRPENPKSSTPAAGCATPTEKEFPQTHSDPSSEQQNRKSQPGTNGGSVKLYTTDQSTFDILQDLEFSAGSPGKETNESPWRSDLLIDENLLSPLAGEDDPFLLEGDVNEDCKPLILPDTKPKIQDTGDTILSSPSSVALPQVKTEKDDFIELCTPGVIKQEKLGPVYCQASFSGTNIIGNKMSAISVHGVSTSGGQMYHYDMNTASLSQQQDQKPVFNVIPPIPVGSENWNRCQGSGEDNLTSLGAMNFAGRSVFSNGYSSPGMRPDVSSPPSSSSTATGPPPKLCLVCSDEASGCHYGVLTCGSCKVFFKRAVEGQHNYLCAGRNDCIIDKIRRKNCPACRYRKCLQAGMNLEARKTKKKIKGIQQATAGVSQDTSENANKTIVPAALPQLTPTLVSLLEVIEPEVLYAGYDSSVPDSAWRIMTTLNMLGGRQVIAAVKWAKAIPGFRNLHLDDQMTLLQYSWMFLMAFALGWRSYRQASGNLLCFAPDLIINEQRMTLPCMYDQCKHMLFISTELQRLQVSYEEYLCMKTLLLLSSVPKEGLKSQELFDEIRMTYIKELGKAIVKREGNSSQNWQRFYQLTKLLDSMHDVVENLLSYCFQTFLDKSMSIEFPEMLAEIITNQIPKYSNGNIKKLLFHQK
Put plainly: 18F-YJH08 PET/CT in adipocyte specific GR knockout mice. It is filed as in vivo. The settings on record: vs wild type litter mate, supraspinal and scapular brown fat depots.

The target of data set [5] is T1, GR. The data set is described as follows: 18F-YJH08 uptake in adrenalectomized mice.
In data set [6] the test system is GR. Put plainly: Immunoblot of GR in tissues of JG231 treated mice. Format: in vivo. Conditions: JG231 4 mg/kg/day for 3 days intraperitoneally. (In western blotting, separated proteins are transferred to a membrane and probed.)
Another data set concerns GR in MCF7. The data set is described as follows: Immunoblot of GR in MCF7 cells treated with JG231. It is filed as cell-based, human. Conditions: 24 h.
A further data set has as its system GR in MDA MB 231. The data set is described as follows: Immunoblot of GR in MDA MB 231 cells treated with JG231. It is filed as cell-based, human. The settings on record: 24 h.
Data set [7] relates to prostate cancer mouse models. The settings on record: cited from earlier work.
In data set [8] the test system is GR target genes (GILZ, FKBP5, Per1) in DU145 cells. The data set is described as follows: Real time PCR of GR target genes in DU145 cells. It is filed as cell-based, human. The settings on record: DU145 cells, dexamethasone 1 μM, 6 h exposure. A general note: Real-time PCR tracks product formation cycle by cycle.

Regarding `COc1cccc2c1-c1ccc3c(c1C(Cc1ccc([18F])cc1)O2)C(C)=CC(C)(C)N3` (centres unmarked) [18F-YJH08, ^18F-5-(4-fluorobenzyl)-10-methoxy-2,2,4-trimethyl-2,5-dihydro-1H-chromeno[3,4-f]quinoline], in data set [1], the “partition coefficient (log P)” value is on record as 2.78. In addition, the mechanism of clearance result in data set [2] (liver uptake and washout) is on record as “hepatobiliary”. Further, in data set [2], the “radiotracer uptake in the bone (stability to radiodefluorination)” value was “low and approximately equivalent to muscle”. In data set [3] (30 min after injection), the “uptake in adrenal gland” value is 20.02 ± 2.21 % ID/g, the uptake in blood stood at 0.85 ± 0.1 % ID/g, the uptake in bone stood at 1.11 ± 0.15 % ID/g and the uptake in brain came out at 1.68 ± 0.14 % ID/g. Moreover, in [3] (30 min after injection), the uptake in heart worked out at 3.04 ± 0.75 % ID/g, the uptake in kidney was 4.5 ± 0.5 % ID/g, the “uptake in large intestine” value is recorded as 1.33 ± 0.35 % ID/g and the uptake in liver was 11.03 ± 0.89 % ID/g. Besides, in [3] (30 min after injection), the uptake in lung stood at 2.65 ± 0.19 % ID/g, the uptake in muscle came out at 1.49 ± 0.2 % ID/g, the uptake in pancreas came to 4.5 ± 0.15 % ID/g and the “uptake in small intestine” value is listed as 19.05 ± 3.27 % ID/g. For the same compound, in [3] (30 min after injection), the uptake in spleen is given as 1.59 ± 0.13 % ID/g, the uptake in stomach was found to be 1.88 ± 0.96 % ID/g and the “uptake in supraspinal BAT” value was found to be 14.41 ± 3.42 % ID/g. Also, in [3] (60 min after injection), the “uptake in adrenal gland” value amounted to 9.43 ± 0.08 % ID/g, the uptake in blood is reported as 0.57 ± 0.02 % ID/g, the uptake in bone is listed as 0.61 ± 0.15 % ID/g and the uptake in brain was 1.33 ± 0.06 % ID/g. In data set [3] (60 min after injection), the uptake in heart was determined as 1.33 ± 0.21 % ID/g, the uptake in kidney is given as 2.35 ± 0.34 % ID/g, the “uptake in large intestine” value came to 1.23 ± 0.43 % ID/g and the uptake in liver was determined as 7.7 ± 0.69 % ID/g. Further, in data set [3] (60 min after injection), the uptake in lung stood at 2.02 ± 0.29 % ID/g, the uptake in muscle is recorded as 1.15 ± 0.03 % ID/g, the uptake in pancreas came out at 2.63 ± 0.05 % ID/g and the “uptake in small intestine” value worked out at 8.61 ± 2.68 % ID/g. For the same compound, in [3] (60 min after injection), the uptake in spleen is on record as 0.83 ± 0.02 % ID/g, the uptake in stomach came to 1.63 ± 0.92 % ID/g and the “uptake in supraspinal BAT” value stood at 16.4 ± 4.93 % ID/g. Moreover, in data set [3] (90 min after injection), the “uptake in adrenal gland” value came to 5.72 ± 2.32 % ID/g, the uptake in blood stood at 0.49 ± 0.06 % ID/g, the uptake in bone was found to be 0.58 ± 0.16 % ID/g and the uptake in brain is 0.97 ± 0.03 % ID/g. Moreover, in data set [3] (90 min after injection), the uptake in heart is 0.92 ± 0.14 % ID/g, the uptake in kidney was found to be 1.86 ± 0.26 % ID/g, the “uptake in large intestine” value is 6.67 ± 4.73 % ID/g and the uptake in liver was determined as 8.43 ± 1.38 % ID/g. In data set [3] (90 min after injection), the uptake in lung is 1.39 ± 0.1 % ID/g, the uptake in muscle turned out to be 0.85 ± 0.18 % ID/g, the uptake in pancreas was determined as 1.9 ± 0.41 % ID/g and the “uptake in small intestine” value came to 7.67 ± 2.34 % ID/g. Also, in [3] (90 min after injection), the uptake in spleen came to 0.74 ± 0.15 % ID/g, the uptake in stomach is 2.61 ± 1.54 % ID/g and the “uptake in supraspinal BAT” value was 14.58 ± 1.91 % ID/g. Moreover, the “uptake in fat depots of GR^fl/fl, Adipoq-Cre knockout mice” value at GR [4] was “significantly reduced”. The “tissue uptake in adx mice compared to intact mice” value at GR [5] was “higher”.

In the case of `CCn1c(=O)/c(=C2\Sc3cc(Cl)ccc3N2C)s/c1=C\c1scc[n+]1Cc1ccc(Br)s1.[Cl-]` [JG231], in the data set on GR [6], the “change in GR levels in kidneys, liver, and muscle” value was “no change”; the “reduction in GR expression levels in brown fat” value is ~ 50%. For the same compound, in the data set with GR in MCF7, the “GR degradation (immunoblot)” value is recorded as “degrades GR”. In addition, the “GR degradation (immunoblot)” value in the data set on GR in MDA MB 231 is on record as “degrades GR”. In data set [7], the antitumor activity result is “antitumor activity”.

Turning to `C[C@@H]1C[C@H]2[C@@H]3CCC4=CC(=O)C=C[C@]4(C)[C@@]3(F)[C@@H](O)C[C@]2(C)[C@@]1(O)C(=O)CO` [dexamethasone, reference compound], the “induction of Per1” value in [8] is on record as “induced”.
